# According to patent publication US11857601B2, “Pharmaceutical composition for cancer treatment comprising fusion protein including IL-2 protein and CD80 protein and anticancer drug” (GI INNOVATION, INC., priority 2020, dated 2024):
# Marks after values point to notes of the source that are not given here.
# Experiments:
# EMT6 cells = assay: mGI-101 and Paclitaxel in EMT6 allotransplanted tumor model; type: in vivo, BALB/c mice
# Description: EMT6 cells were purchased from ATCC (USA) and cultured in Waymouth MB 751/1 medium (WELGENE) containing 10% FBS (Gibco) and 1% antibiotic/antifungal agent (Gibco). The cultured cells were harvested using trypsin (Gibco), and then a high-concentration cell suspension (2×10^6 cells/0.4 mL) for 10 mice was prepare with PBS and stored on ice until injected into mice. In order to establish an allotransplanted tumor model, the skin was incised slightly away from the 4th nipple position from the upper right of the ventral region of BALB/c female mice (7-week-old), and the location of mammary fat pad at the incised site was identified, and then EMT6 cell line prepared inside the mammary fat pad was injected at 2×10^5 cells/40 uL/head.
# A certain period of time after cell inoculation of the tumor grafts of the mice, the tumor volume was measured for animals with no abnormalities in the health condition of the animals, and the subjects were selected so that the average of each group reached less than 70-100 mm^3, and the selected animals were assigned as evenly as possible based on tumor volume and body weight, each group including 10 animals. As shown in Table 24 and FIG. 106, the test groups were configured and the test substances were administered.
# (§1) Clinical symptoms such as a disease and a behavioral change were observed once a day during the test period, and deceased animals were identified, and the mice were sacrificed when the tumor size reached a size of 4,000 mm^3.
# (§2) The tumor volume before administration of each subject was set as the value measured at the time of grouping, and the anti-tumor efficacy was evaluated as compared with the vehicle control.
# (§3) All statistical calculations were performed using Prism 8.0 (Graph Pad Software Inc, USA). The comparison of tumor volume measurements was made through two-way analysis of variance followed by Tukey's multiple comparison test. A p value of less than 0.05 was considered significant.
# [1] = tested on: CD8+ T cells and CD4+/FoxP3+ Treg cells; assay: Proliferation of CD8+ T cells and Treg cells in PBMCs (Exp. Ex. 10); type: cell-based, human; settings: for proportion of CD8+ T cells: anti-CD3ε 1 μg/ml, 7 days, compared with no stimulus, anti-CD3 antibody alone and GI101C1; for proliferation of CD4+/FoxP3+ Treg cells: compared with no stimulus and anti-CD3 antibody alone
# Description: Human PBMCs were purchased from Allcells (Lot #3014928, USA). […] CellTrace CFSE dye was used, which was reacted with the human PBMCs under a light-blocking condition at […] for 20 minutes. The cells were labeled with CFSE by being reacted with 1 μM CellTrace CFSE dye at 37° C. for 20 minutes. CFSE not bound to the cells was removed by being reacted for 5 minutes with a culture medium having a 5-fold volume of the staining reaction solution and then by being centrifuged at 1,300 rpm for 5 minutes. The CFSE-labeled PBMCs were resuspended in the culture medium (RPMI1640 medium containing 10% fetal bovine serum, 10 mM HEPES, 100 U/ml penicillin/streptomycin, 1 mM sodium pyruvate, 55 μM 2-mercaptoethanol, 1 mM non-essential amino acid, and 2 mM L-glutamine), and then added to a 96-well microplate at 1×10^5 cells per well.
# The incubated cells were examined for their degree of proliferation by measuring, with FACS analysis using anti-human CD4-PE antibody (BioLegend, USA), anti-human CD8-PE/Cy7 antibody (BioLegend, USA), and anti-human FoxP3-APC antibody (BioLegend, USA), a proportion of CD8+ T cells that had not been labeled with CFSE.
# LL/2 cell line = assay: mGI-101 and Axitinib in LL/2 allotransplanted tumor model; type: in vivo, C57BL/6 mice; settings: mGI-101 3 mg/kg IP, Axitinib 30 mg/kg PO
# Description: (§6) Mouse-derived colorectal cancer cells, CT26 (Mus musculus, Colon adenocarcinoma), and mouse-derived lung cancer cells, LL/2 (Mus musculus, Lung adenocarcinoma), were purchased from ATCC (USA) and used for the test. The cells to be used for the test were thawed, mixed with RPMI1640 (A1049101, Thermofisher scientific) medium containing 10% FBS (fetal bovine serum, Gibco, 10082-147), and then placed in a cell culture flask, and cultured in a 37° C., 5% CO2 incubator. The cells were washed with PBS, and then the cells were isolated using Trypsin-EDTA (15090, Gibco), and centrifugation (125×g, 5 minutes) was performed to discard the supernatant, and then the cells were suspended in a new medium to obtain the cell suspension. The viability of the cells was identified, and then a cell line was prepared by diluting in a medium to a concentration of 5.0×10^6 cells/mL.
# (§7) 6-week-old male BALB/cAnHsd mice or C57BL/6NHsd mice were purchased and used for the test. After the end of the acclimation period of 7 days, the cells were transplanted into healthy animals. The cell suspension (5×10^6 cells/mL) was dispensed, and filled into a disposable syringe, and transplantation of the suspension was performed by subcutaneous administration at 0.1 mL/head in the right dorsal region of the animals. General symptoms were observed once a day during the engraftment and growth period after cell line transplantation.
# (§8) After the inoculation of the cell line was performed, when the tumor size at the site to which the cell line was transplanted reached about 50 mm^3, the tumor size of each group was distributed as uniformly as possible according to the ranked tumor size.
# (§9) The test substance was administered orally or intraperitoneally, and administered for 3 weeks depending on the composition of the test group. In the case of oral administration, the animals were fixed with the cervical spine skin fixation method, and administered directly into the stomach using a sonde for oral administration. In the case of intraperitoneal administration, the animals were fixed with the cervical spine skin fixation method, and administered intraperitoneally using a syringe equipped with a 26 gauge needle. The administration rate was not to exceed 200 μl/min.
# Syngeneic model was prepared by subcutaneously transplanting the LL/2 cell line into C57BL/6 mice, and then the test substance was administered to evaluate the anticancer effect.
# CT26 cells [2] = assay: mGI-101 and Axitinib in CT26 allotransplanted tumor model; settings: mGI-101 3 mg/kg IP, Axitinib 30 mg/kg PO;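 further: subcutaneous CT26 syngeneic tumors in male BALB/c mice, dosing started once tumors were near 50 mm^3, drugs given orally or intraperitoneally for up to 3 weeks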
# Description: as §6, §7, §8, §9
# Syngeneic model was prepared by subcutaneously transplanting the CT26 cell line into Balb/c mice, and then the test substance was administered to evaluate the anticancer effect.
# [3] = tested on: CT26 (mouse colon carcinoma) cells; assay: mGI-101 and Galunisertib in CT26 allotransplanted tumor model; type: in vivo, BALB/cAnHsd mice; settings: mean ± SD, mGI-101 3 mg/kg IP, Galunisertib 75 mg/kg PO
# Description: 6-week-old male BALB/cAnHsd mice were purchased and used for the test.
# The tumor size was measured three times a week for 3 weeks from the day of start of administration of the test substance. The major axis and minor axis of the tumor were measured using a caliper, and the tumor size (tumor volume, TV) was calculated using the following equations. TV (mm^3)=(W^2×L)/2 [Equation 1]
# MDA-MB-231 cells = assay: GI101 and Keytruda in humanized mice xenotransplanted with MDA-MB-231; type: in vivo, human
# Description: Fetal bovine serum (FBS, 16000-044, Thermofisher scientific, USA), penicillin-streptomycin; 10,000 units/ml penicillin and 10,000 μg/ml streptomycin (15140122, Thermofisher scientific, USA); and RPMI1640 (A1049101, Thermofisher scientific, USA) per 100 ml were mixed and used.
# The cells were suspended using Trypsin-EDTA (Cat. 25200-072, Thermofisher scientific, USA). The suspended cells were collected by centrifugation (125×g, 5 minutes) using a centrifuge, transferred to a new medium and a new flask, and passage cultured. The cultured cells were put to a centrifugation tube on the day of cell line transplantation and then collected. […] 8-week-old female NSGb2m (NOD.Cg-B2m^tm1UncPrkdc^scidIl2rg^tm1Wjl/SzJ) mice were purchased from Joongang Bio (Korea) and used for the test. The body weight was measured the next day after the end of the quarantine and acclimation period, and then the human-derived PBMC cell suspension (5×10^6 cells/0.2 ml) prepared for healthy animals was filled into a disposable syringe and administered to the caudal vein of the animals. General symptoms were observed once a day after cell transplantation.
# A certain period of time after the cell transplantation, the tumor volume was measured for animals with no abnormalities in the health condition of the animals, and 32 subjects were selected so that the average of each group reached 40 to 80 mm^3. The selected animals were grouped into a total of 4 groups as evenly as possible based on tumor volume and body weight, each group including 8 animals.
# General symptoms such as appearance, behavior, and excrement were observed once a day during the observation period, and deceased animals were identified. Body weight was measured on the day of cell line transplantation, twice a week, and on the day of animal sacrifice. The major axis (maximum length, L) and minor axis (perpendicular width, W) of the tumor were measured using a caliper (Digital caliper, mitutoyo, Japan) three times a week during the observation period, and the tumor volume (TV) was calculated by substituting them into the following equations.
# (§4) The tumor volume before administration of each subject was set as the value measured at the time of grouping.
# CT26 cells [4] = assay: mGI-101 and Lenvatinib in CT26 allotransplanted tumor model; type: in vivo, BALB/c mice
# Description: (§5) CT26 cells were purchased from ATCC (USA) and cultured in RPMI1640 medium (Gibco) containing 10% FBS (Gibco) and 1% antibiotic/antifungal agent (Gibco). The cultured cells were harvested using trypsin (Gibco) and then suspended in PBS. In order to establish an allotransplanted tumor model, 1×10^6 CT26 cells were subcutaneously injected into the right flank of BALB/c female mice (7-week-old).
# A certain period of time after the cell transplantation, the tumor volume was measured for animals with no abnormalities in the health condition of the animals, and the mice were assigned so that the average tumor volume of each group was less than 70-100 mm^3, each group including 10 mice.
# In the case of Lenvatinib powder, the dose was calculated and weighed, and it was prepared to the dose concentration using a 0.5% methyl cellulose excipient. In order to minimize the loss of the test substance, the doses for 3 or 4 days were weighed, and prepared using the excipient on the day of administration and injected.
# as §1, §4, §3
# Renca cells = assay: mGI-101 and Lenvatinib in Renca allotransplanted tumor model; type: in vivo, BALB/c mice; settings: mGI-101 twice a week (BIW), Lenvatinib daily, 10 mice per group
# Description: as §5, with “Renca” for “CT26”, “5×10^6 Renca” for “1×10^6 CT26”, “back” for “right flank”, “(8-week-old).” for “(7-week-old).”
# A certain period of time after cell inoculation of the tumor grafts of the mice, the tumor volume was measured for animals with no abnormalities in the health condition of the animals, and the mice were randomly selected and assigned, each group including 10 mice.
# The death of the mouse, the type of general symptoms, the date of onset, and the severity of symptoms were observed once a day during the test period, and recorded for each subject.
# as §2, §3
# [5] = day 42 vs day 21 after tumor transplantation, 8 animals per group
# [6] = end of the experiment, 10 mice per group
compound,measurement,setting,value
"CC(=O)O[C@H]1C(=O)[C@@]2(C)[C@H]([C@H](OC(=O)c3ccccc3)[C@]3(O)C[C@H](OC(=O)[C@H](O)[C@@H](NC(=O)c4ccccc4)c4ccccc4)C(C)=C1C3(C)C)[C@]1(OC(C)=O)CO[C@@H]1C[C@@H]2O [Paclitaxel, reference compound]",number of mice with tumor growth inhibition rate of 30% or more,"EMT6 cells; EMT6, 10 animals per group",7 mice
same,number of mice with tumor growth inhibition rate of 50% or more,"EMT6 cells; EMT6, 10 animals per group",4 mice
same,number of mice with tumor growth inhibition rate of 80% or more,"EMT6 cells; EMT6, 10 animals per group",2 mice
same,tumor size vs control,"EMT6 cells; day 13, mGI-101 3 mg/kg i.v. QW, Paclitaxel 10 mg/kg i.p. 7 consecutive days",statistically significantly lower
"Proleukin: Proleukin (Novartis, hIL-2); human recombinant IL-2 [reference compound]",proportion of CD8+ T cells,[1],significant increase
same,proliferation of CD4+/FoxP3+ Treg cells,[1],significant increase
"CNC(=O)c1ccccc1Sc1ccc2c(/C=C/c3ccccn3)n[nH]c2c1 [Axitinib, reference compound]",Tumor size,"LL/2 cell line; Day 0, mean ± SD",55.77 ± 11.25 mm^3
same,Tumor size,"LL/2 cell line; Day 2, mean ± SD",88.73 ± 21.26 mm^3
same,Tumor size,"LL/2 cell line; Day 5, mean ± SD",179.31 ± 52.62 mm^3
same,Tumor size,"LL/2 cell line; Day 7, mean ± SD",362.30 ± 97.92 mm^3
same,Tumor size,"LL/2 cell line; Day 9, mean ± SD",584.17 ± 172.94 mm^3
same,Tumor size,"LL/2 cell line; Day 12, mean ± SD",892.90 ± 256.88 mm^3
same,Tumor size,"LL/2 cell line; Day 14, mean ± SD",1292.27 ± 385.43 mm^3
same,Tumor size,"LL/2 cell line; Day 16, mean ± SD",1775.26 ± 462.50 (9) mm^3
same,Tumor size,"LL/2 cell line; Day 19, mean ± SD",2551.08 ± 695.31 (9) mm^3
same,Tumor size,"LL/2 cell line; Day 21, mean ± SD","4236.33 ± 1060.18 (9)**^,## mm^3"
same,Tumor size,"CT26 cells [2]; Day 0, mean ± SD",61.67 ± 12.58 mm^3
same,Tumor size,"CT26 cells [2]; Day 5, mean ± SD",261.76 ± 61.86 mm^3
same,Tumor size,"CT26 cells [2]; Day 7, mean ± SD",354.05 ± 104.90 mm^3
same,Tumor size,"CT26 cells [2]; Day 9, mean ± SD",442.98 ± 148.70 mm^3
same,Tumor size,"CT26 cells [2]; Day 12, mean ± SD",529.85 ± 206.76 mm^3
same,Tumor size,"CT26 cells [2]; Day 14, mean ± SD",671.72 ± 303.14* mm^3
same,Tumor size,"CT26 cells [2]; Day 16, mean ± SD",970.72 ± 475.99** mm^3
same,Tumor size,"CT26 cells [2]; Day 19, mean ± SD",1129.12 ± 639.16**** mm^3
same,Tumor size,"CT26 cells [2]; Day 21, mean ± SD",1710.57 ± 1133.79**** mm^3
"Cc1cccc(-c2nn3c(c2-c2ccnc4ccc(C(N)=O)cc24)CCC3)n1 [Galunisertib, reference compound]",Tumor size,[3]; Day 0,61.98 ± 12.23 mm^3
same,Tumor growth inhibition,[3]; Day 2,15.60 ± 38.26%
same,Tumor size,[3]; Day 2,187.20 ± 55.14 mm^3
same,Tumor growth inhibition,[3]; Day 4,34.09 ± 27.14%
same,Tumor size,[3]; Day 4,260.69 ± 78.70 mm^3
same,Tumor growth inhibition,[3]; Day 7,21.12 ± 34.98%
same,Tumor size,[3]; Day 7,398.78 ± 146.30 mm^3
"Keytruda: Keytruda (Pembrolizumab, MSD), an anti-PD-1 antibody [reference compound]",tumor growth,"MDA-MB-231 cells; GI101 6 mg/kg, Keytruda 5 mg/kg, 4 administrations, compared with the control (hIgG4)",tumor growth inhibition
same,number of mice with tumor growth inhibition rate of 30% or more,MDA-MB-231 cells; [5],7 mice
same,number of mice with tumor growth inhibition rate of 50% or more,MDA-MB-231 cells; [5],5 mice
same,number of mice with tumor growth inhibition rate of 80% or more,MDA-MB-231 cells; [5],3 mice
"GI101C2: comparative fusion protein: Fc domain, linker, IL-2 variant (2M) (R38A, F42A); SEQ ID NO: 19",proportion of CD8+ T cells,[1],significant increase
same,proliferation of CD4+/FoxP3+ Treg cells,[1],significant increase
COc1cc2nccc(Oc3ccc(NC(=O)NC4CC4)c(Cl)c3)c2cc1C(N)=O [Lenvatinib],number of mice with tumor growth inhibition rate of 30% or more,CT26 cells [4]; [6],6 mice
same,number of mice with tumor growth inhibition rate of 50% or more,CT26 cells [4]; [6],4 mice
same,number of mice with tumor growth inhibition rate of 80% or more,CT26 cells [4]; [6],1 mice
same,anticancer effect (tumor size) compared with the control,"CT26 cells [4]; mGI-101 3 mg/kg i.v. QW, Lenvatinib 3 mg/kg p.o. daily, Lenvatinib day 18, 21, combination day 16, 18, 21",statistically significant anticancer effect
same,number of mice with tumor growth inhibition rate of 30% or more,Renca cells,4 mice
same,number of mice with tumor growth inhibition rate of 50% or more,Renca cells,2 mice
same,number of mice with tumor growth inhibition rate of 80% or more,Renca cells,no mouse
